Assay results as given in patent US20230175072A1, “3 FLAP OKAZAKI FRAGMENTS AND USES THEREOF” (City of Hope, priority 2021, published 2023).
“Also recorded” adds a separate entry of the source. Like-named read-outs stand apart in the source and are kept apart here.

What was measured:
[1] = test system: yeast cells; conditions: rad27Δ cells; cited from earlier work
[2] = test system: yeast cells; assay: MMS sensitivity spot assay; assay type: cell-based, Saccharomyces cerevisiae; conditions: YPD plates, 30° C., 48 h
Experimental: FIG. 6. pol3 ITD-bearing rad27Δ revertant mutations or pol3 ITD knock-in of rad27Δ cells partially reverses MMS-induced lethality. Viability of WT, pol3 ITD knock-in, rad27Δ, rad27Δ with the pol3 ITD knock-in mutation, and a rad27Δ revertant carrying a pol3 ITD mutation was analyzed using spot assays. Yeast cells of the indicated genetic backgrounds were serially diluted and spotted on YPD plates containing the indicated level of MMS. The plates were incubated at 30° C. for 48 hours.
To assay the MMS sensitivity of different yeast strains, 0.005%, 0.01%, 0.015% or 0.02% MMS was added to YPD plates after autoclaving, and plates were used the same day. Yeast cells were serially diluted and spotted on YPD plates containing different levels of MMS. The plates were incubated at 30° C. for 48 h.

[3] = target: T1, Chk1 (Mus musculus, UniProt O35280); assay: Chk1 inhibition and lung cancer development in FEN1 FFAA mutant mice; assay type: in vivo; conditions: 0.025 mg/kg intraperitoneal once per week for four weeks from 6 months, lung tumors assessed at 16 months, vs DMSO
T1 construct: from tissue; host or cells: live mice (129S1 background), WT and FEN1 WT/FFAA heterozygotes
T1 sequence (O35280 1-476): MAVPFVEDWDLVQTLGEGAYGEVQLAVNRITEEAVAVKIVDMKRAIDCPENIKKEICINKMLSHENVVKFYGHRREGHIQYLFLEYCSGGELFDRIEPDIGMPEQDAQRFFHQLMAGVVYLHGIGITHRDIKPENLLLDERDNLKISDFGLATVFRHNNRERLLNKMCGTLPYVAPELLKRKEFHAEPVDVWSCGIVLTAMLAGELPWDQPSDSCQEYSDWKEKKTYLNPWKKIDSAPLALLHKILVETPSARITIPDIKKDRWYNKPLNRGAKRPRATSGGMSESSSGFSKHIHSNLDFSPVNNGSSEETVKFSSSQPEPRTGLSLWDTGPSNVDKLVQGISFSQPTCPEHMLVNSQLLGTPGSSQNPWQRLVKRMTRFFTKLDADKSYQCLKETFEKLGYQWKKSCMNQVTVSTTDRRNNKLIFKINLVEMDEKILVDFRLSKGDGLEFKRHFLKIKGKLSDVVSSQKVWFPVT
From the text: FEN1 F343A/F344A (FFAA) heterozygous mice (WT/FFAA, 129S1 genetic background), which develop lung adenoma or adenocarcinoma at a high frequency (32), were in-line bred and housed in the Animal Resource Center at City of Hope. All experimental protocols involving animals were approved by the Institutional Animal Care and Use Committee of City of Hope in compliance with the Public Health Service policies of the United States. To determine the extent to which inhibiting Chk1 suppressed cancer development in FEN1 FFAA mutant mice, randomly selected WT or WT/FFAA male or female mice (6 months old) were treated with 0.025 mg/kg body weight SB218078 (Chk1 inhibitor) in DMSO via intraperitoneal injection once per week for four weeks. Untreated control mice were injected with the same volume of DMSO (vehicle). All mice were euthanized at 16 months of age. The presence of lung tumors was determined using anatomic and histopathological analysis in blinding fashion. For whole exome sequencing (WES) studies, WT or FEN1 A159V/WT mice (33) were euthanized at 16 months, and normal lung or lung tumors were dissected for total genomic DNA extraction and purification.
Two-tailed student's t-test was used to determine significance in differences in mutation rate assays and the hypergeometric test was used to determine the significance in the enrichment of a signaling pathway. […]

SMILES	MMS sensitivity of yeast cells [1]	MMS sensitivity of yeast cells ([2]; pol3 ITD cells in a WT RAD27 background, high concentrations of MMS)	MMS sensitivity of yeast cells ([2]; rad27Δ revertant cells and rad27Δ pol3 ITD knock-in mutant cells, higher concentrations (≥0.01%) MMS)	MMS sensitivity of yeast cells ([2]; rad27Δ revertant cells and rad27Δ pol3 ITD knock-in mutant cells, low concentration (0.005%) MMS)	spontaneous lung cancer development ([3]; WT mice)	spontaneous lung cancer development ([3]; WT/FFAA (FEN1 F343A/F344A heterozygous) mice, 0.025 mg/kg)
COS(C)(=O)=O [MMS, methyl methanesulfonate]	sensitive	sensitive	sensitive	resistant	–	–
O=C1NC(=O)c2c1c1c3ccccc3n3c1c1c2c2ccccc2n1C1CCC3O1 [SB218078]	–	–	–	–	not in WT mice	significantly inhibited spontaneous lung cancer development; also recorded: blocks lung cancer development
